PubChem BioAssay (NCI)
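Five compound concentrations were applied to cells in 96-well plates for 48 hours; endpoints were derived by simple linear interpolation of the resulting dose-response curve. Abbreviation: GI50, concentration required for 50% inhibition of growth. Definition used: TGI = concentration required for complete inhibition of growth.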

Assays:
Assay in all cases: NCI tumour cell line growth inhibition, 48 h
[1] = system: 786-0 renal
[2] = system: A498 renal
[3] = system: A549 NSCLC
[4] = system: ACHN renal
[5] = system: BT-549 breast
[6] = system: CAKI-1 renal
[7] = system: CCRF-CEM leukemia
[8] = system: DU-145 prostate
[9] = system: EKVX NSCLC
[10] = system: HCT-116 colon
[11] = system: HCT-15 colon
[12] = system: HL-60(TB) leukemia
[13] = system: HOP-62 NSCLC
[14] = system: HOP-92 NSCLC
[15] = system: HS 578T breast
[16] = system: HT29 colon
[17] = system: IGROV1 ovarian
[18] = system: K-562 leukemia
[19] = system: KM12 colon
[20] = system: LOX IMVI melanoma
[21] = system: M14 melanoma
[22] = system: MALME-3M melanoma
[23] = system: MCF7 breast
[24] = system: MDA-MB-231 breast
[25] = system: MDA-MB-435
[26] = system: MOLT-4 leukemia
[27] = system: NCI-H226 lung
[28] = system: NCI-H23 lung
[29] = system: NCI-H522 lung
[30] = system: NCI/ADR-RES ovarian
[31] = system: OVCAR-3 ovarian
[32] = system: OVCAR-4 ovarian
[33] = system: OVCAR-5 ovarian
[34] = system: OVCAR-8 ovarian
[35] = system: PC-3 prostate
[36] = system: RPMI-8226 leukemia
[37] = system: RXF 393 renal
[38] = system: SF-268 CNS
[39] = system: SF-295 CNS
[40] = system: SF-539 CNS
[41] = system: SK-MEL-2 melanoma
[42] = system: SK-MEL-5 melanoma
[43] = system: SK-OV-3 ovarian
[44] = system: SN12C renal
[45] = system: SNB-19 CNS
[46] = system: SNB-75 CNS
[47] = system: SW-620 colon
[48] = system: TK-10 renal
[49] = system: U251 CNS
[50] = system: UACC-257 melanoma
[51] = system: UACC-62 melanoma
[52] = system: UO-31 renal
[53] = system: COLO 205 colon
[54] = system: HCC-2998 colon
[55] = system: NCI-H460 lung
[56] = system: SK-MEL-28 melanoma
[57] = system: T-47D breast

## CC(C)CC(CC1=CCC2CC1C2(C)C)C1=C(O)C(C)(C)C(=O)C(C)(C)C1=O (centres undefined)
[1]
  GI50: 0.363 µM
  TGI: > 100 µM
[2]
  GI50: 0.236 µM
  TGI: 0.651 µM
[3]
  GI50: 0.359 µM
  TGI: > 100 µM
[4]
  GI50: 0.352 µM
  TGI: 3.58 µM
[5]
  GI50: 0.413 µM
  TGI: 4.37 µM
[6]
  GI50: 0.332 µM
  TGI: 2.29 µM
[7]
  GI50: 0.353 µM
  TGI: 3.12 µM
[8]
  GI50: 0.465 µM
  TGI: > 100 µM
[9]
  GI50: 0.33 µM
  TGI: > 100 µM
[10]
  GI50: 0.376 µM
  TGI: 1.46 µM
[11]
  GI50: 0.35 µM
  TGI: 5.18 µM
[12]
  GI50: 0.205 µM
  TGI: 0.423 µM
[13]
  GI50: 0.303 µM
  TGI: 1.14 µM
[14]
  GI50: 0.191 µM
  TGI: 0.499 µM
[15]
  GI50: 0.366 µM
  TGI: 3.81 µM
[16]
  GI50: 0.383 µM
  TGI: 11.2 µM
[17]
  GI50: 0.5 µM
  TGI: > 100 µM
[18]
  GI50: 0.334 µM
  TGI: > 100 µM
[19]
  GI50: 0.328 µM
  TGI: 2.79 µM
[20]
  GI50: 0.336 µM
  TGI: 10.7 µM
[21]
  GI50: 0.404 µM
  TGI: 5.86 µM
[22]
  GI50: 0.295 µM
  TGI: 1.13 µM
[23]
  GI50: 0.303 µM
  TGI: > 100 µM
[24]
  GI50: 0.247 µM
  TGI: 0.717 µM
[25]
  GI50: 0.374 µM
  TGI: 31.8 µM
[26]
  GI50: 0.343 µM
  TGI: 1.6 µM
[27]
  GI50: 0.42 µM
  TGI: 9.46 µM
[28]
  GI50: 0.321 µM
  TGI: 1.57 µM
[29]
  GI50: 0.271 µM
  TGI: 0.992 µM
[30]
  GI50: 0.306 µM
  TGI: 0.979 µM
[31]
  GI50: 0.359 µM
  TGI: > 100 µM
[32]
  GI50: 0.486 µM
  TGI: > 100 µM
[33]
  GI50: 0.386 µM
  TGI: > 100 µM
[34]
  GI50: 0.379 µM
  TGI: > 100 µM
[35]
  GI50: 0.318 µM
  TGI: > 100 µM
[36]
  GI50: 0.227 µM
  TGI: 0.558 µM
[37]
  GI50: 0.434 µM
  TGI: 3.83 µM
[38]
  GI50: 0.354 µM
  TGI: > 100 µM
[39]
  GI50: 0.285 µM
  TGI: 0.942 µM
[40]
  GI50: 0.357 µM
  TGI: > 100 µM
[41]
  GI50: 0.286 µM
  TGI: 0.722 µM
[42]
  GI50: 0.206 µM
  TGI: 0.468 µM
[43]
  GI50: 0.256 µM
  TGI: 0.733 µM
[44]
  GI50: 0.324 µM
  TGI: > 100 µM
[45]
  GI50: 0.375 µM
  TGI: > 100 µM
[46]
  GI50: 0.24 µM
  TGI: 9.67 µM
[47]
  GI50: 0.4 µM
  TGI: > 100 µM
[48]
  GI50: 0.424 µM
  TGI: 98.9 µM
[49]
  GI50: 0.335 µM
  TGI: > 100 µM
[50]
  GI50: 0.256 µM
  TGI: 0.792 µM
[51]
  GI50: 0.266 µM
  TGI: 1.17 µM
[52]
  GI50: 0.272 µM
  TGI: 2.4 µM

## O=C(NN1C(=O)CSC12CCCCC2)c1[nH]c2ccc(F)cc2c1-c1ccccc1
[1]
  GI50: 26 µM
  TGI: 49.8 µM
[2]
  GI50: 27.1 µM
  TGI: 76.5 µM
[3]
  GI50: 16.7 µM
  TGI: 30.6 µM
[4]
  GI50: 20 µM
  TGI: 42.9 µM
[5]
  GI50: 33.8 µM
  TGI: > 100 µM
[6]
  GI50: 31.9 µM
  TGI: > 100 µM
[7]
  GI50: 29.7 µM
  TGI: 96.7 µM
[53]
  GI50: 36.8 µM
  TGI: > 100 µM
[8]
  GI50: 22.6 µM
  TGI: 45.2 µM
[9]
  GI50: 83 µM
  TGI: > 100 µM
[54]
  GI50: 34.8 µM
  TGI: 92.5 µM
[10]
  GI50: 16.7 µM
  TGI: 31.5 µM
[11]
  GI50: 32.3 µM
  TGI: > 100 µM
[13]
  GI50: 19.2 µM
  TGI: 41.2 µM
[14]
  GI50: 17.8 µM
  TGI: 40.9 µM
[15]
  GI50: 21.8 µM
  TGI: 82.8 µM
[16]
  GI50: 17.8 µM
  TGI: 36.2 µM
[17]
  GI50: 14.4 µM
  TGI: 32.9 µM
[18]
  GI50: 21.3 µM
  TGI: 52.7 µM
[19]
  GI50: 17.1 µM
  TGI: 32.6 µM
[20]
  GI50: 24.1 µM
  TGI: 61.9 µM
[21]
  GI50: 38.2 µM
  TGI: > 100 µM
[22]
  GI50: 20.2 µM
  TGI: 43.5 µM
[23]
  GI50: 19.4 µM
  TGI: 37.3 µM
[24]
  GI50: 18.8 µM
  TGI: 45.8 µM
[25]
  GI50: 21.8 µM
  TGI: 52.9 µM
[26]
  GI50: 13.9 µM
  TGI: 41.7 µM
[27]
  GI50: 28.1 µM
  TGI: 77 µM
[28]
  GI50: 18.4 µM
  TGI: 50.9 µM
[55]
  GI50: 26.6 µM
  TGI: 77.7 µM
[29]
  GI50: 19.1 µM
  TGI: 58.7 µM
[31]
  GI50: 18.8 µM
  TGI: 32.9 µM
[32]
  GI50: 22.9 µM
  TGI: 70.9 µM
[33]
  GI50: 37.6 µM
  TGI: > 100 µM
[34]
  GI50: 18 µM
  TGI: 31.9 µM
[35]
  GI50: 18.8 µM
  TGI: 35.9 µM
[36]
  GI50: 15.7 µM
  TGI: 37 µM
[37]
  GI50: 14.6 µM
  TGI: 29.7 µM
[38]
  GI50: 22.7 µM
  TGI: 59.6 µM
[39]
  GI50: 22.2 µM
  TGI: 40 µM
[40]
  GI50: 21.8 µM
  TGI: 37.2 µM
[41]
  GI50: 34.6 µM
  TGI: > 100 µM
[56]
  GI50: 28.2 µM
  TGI: 93.2 µM
[42]
  GI50: 41.4 µM
  TGI: > 100 µM
[43]
  GI50: 35.8 µM
  TGI: > 100 µM
[44]
  GI50: 18.2 µM
  TGI: 37.5 µM
[45]
  GI50: 19.8 µM
  TGI: 44.2 µM
[46]
  GI50: 18.5 µM
  TGI: 36.2 µM
[47]
  GI50: 26.6 µM
  TGI: 87.5 µM
[57]
  GI50: 35.6 µM
  TGI: > 100 µM
[48]
  GI50: 19.4 µM
  TGI: 35.7 µM
[49]
  GI50: 18.2 µM
  TGI: 39.2 µM
[50]
  GI50: 23.3 µM
  TGI: 56.9 µM
[51]
  GI50: 15.2 µM
  TGI: 54.7 µM
[52]
  GI50: 27.8 µM
  TGI: 80.9 µM
